Experimental data: PubChem BioAssay (NCI)
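Compound exposure: 48 hours, 5 concentrations, 96-well plates. Abbreviation: GI50, concentration required for 50% inhibition of growth. TGI: total growth inhibition.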

Legend:
Experiment in all cases: growth of human tumour cells (NCI), 48 h
786-0 renal = system: 786-0 renal
A498 renal = system: A498 renal
A549 NSCLC = system: A549 NSCLC
ACHN renal = system: ACHN renal
BT-549 breast = system: BT-549 breast
CAKI-1 renal = system: CAKI-1 renal
CCRF-CEM leukemia = system: CCRF-CEM leukemia
COLO 205 colon = system: COLO 205 colon
DU-145 prostate = system: DU-145 prostate
HCC-2998 colon = system: HCC-2998 colon
HCT-116 colon = system: HCT-116 colon
HCT-15 colon = system: HCT-15 colon
HL-60(TB) leukemia = system: HL-60(TB) leukemia
HOP-62 NSCLC = system: HOP-62 NSCLC
HS 578T breast = system: HS 578T breast
HT29 colon = system: HT29 colon
IGROV1 ovarian = system: IGROV1 ovarian
K-562 leukemia = system: K-562 leukemia
KM12 colon = system: KM12 colon
LOX IMVI melanoma = system: LOX IMVI melanoma
M14 melanoma = system: M14 melanoma
MALME-3M melanoma = system: MALME-3M melanoma
MCF7 breast = system: MCF7 breast
MDA-MB-231 breast = system: MDA-MB-231 breast
MOLT-4 leukemia = system: MOLT-4 leukemia
NCI-H226 lung = system: NCI-H226 lung
NCI-H23 lung = system: NCI-H23 lung
NCI-H522 lung = system: NCI-H522 lung
NCI/ADR-RES ovarian = system: NCI/ADR-RES ovarian
OVCAR-3 ovarian = system: OVCAR-3 ovarian
OVCAR-4 ovarian = system: OVCAR-4 ovarian
OVCAR-5 ovarian = system: OVCAR-5 ovarian
OVCAR-8 ovarian = system: OVCAR-8 ovarian
PC-3 prostate = system: PC-3 prostate
RPMI-8226 leukemia = system: RPMI-8226 leukemia
RXF 393 renal = system: RXF 393 renal
SF-268 CNS = system: SF-268 CNS
SF-295 CNS = system: SF-295 CNS
SF-539 CNS = system: SF-539 CNS
SK-MEL-2 melanoma = system: SK-MEL-2 melanoma
SK-MEL-28 melanoma = system: SK-MEL-28 melanoma
SK-MEL-5 melanoma = system: SK-MEL-5 melanoma
SK-OV-3 ovarian = system: SK-OV-3 ovarian
SN12C renal = system: SN12C renal
SNB-19 CNS = system: SNB-19 CNS
SNB-75 CNS = system: SNB-75 CNS
SR leukemia = system: SR leukemia
SW-620 colon = system: SW-620 colon
T-47D breast = system: T-47D breast
TK-10 renal = system: TK-10 renal
U251 CNS = system: U251 CNS
UACC-257 melanoma = system: UACC-257 melanoma
UACC-62 melanoma = system: UACC-62 melanoma
UO-31 renal = system: UO-31 renal

## O=[N+]([O-])c1cc2c(ccc3occc32)o1
786-0 renal
  GI50: 2.37 µM
  TGI: 5 µM
A498 renal
  GI50: 2.21 µM
  TGI: 4.58 µM
A549 NSCLC
  GI50: 3.21 µM
  TGI: 12.4 µM
ACHN renal
  GI50: 0.561 µM
  TGI: 8.03 µM
BT-549 breast
  GI50: 1.87 µM
  TGI: 4.4 µM
CAKI-1 renal
  GI50: 1.87 µM
  TGI: 4.57 µM
CCRF-CEM leukemia
  GI50: 1.87 µM
  TGI: 7.88 µM
COLO 205 colon
  GI50: 1.57 µM
  TGI: 3.12 µM
DU-145 prostate
  GI50: 1.16 µM
  TGI: 9.84 µM
HCC-2998 colon
  GI50: 1.88 µM
  TGI: 3.88 µM
HCT-116 colon
  GI50: 1.34 µM
  TGI: 5.73 µM
HCT-15 colon
  GI50: 1.96 µM
  TGI: 5.97 µM
HL-60(TB) leukemia
  GI50: 1.59 µM
  TGI: 6.09 µM
HOP-62 NSCLC
  GI50: 3.94 µM
  TGI: 21.5 µM
HS 578T breast
  GI50: 4.29 µM
  TGI: 70.2 µM
HT29 colon
  GI50: 2.45 µM
  TGI: 18.8 µM
IGROV1 ovarian
  GI50: 1.55 µM
  TGI: 7.32 µM
K-562 leukemia
  GI50: 2.14 µM
  TGI: 8.03 µM
KM12 colon
  GI50: 2.78 µM
  TGI: 7.31 µM
LOX IMVI melanoma
  GI50: 1.25 µM
  TGI: 3.85 µM
M14 melanoma
  GI50: 1.41 µM
  TGI: 3 µM
MALME-3M melanoma
  GI50: 1.54 µM
  TGI: 3.11 µM
MCF7 breast
  GI50: 0.701 µM
  TGI: 21.2 µM
MDA-MB-231 breast
  GI50: 1.84 µM
  TGI: 5.83 µM
MOLT-4 leukemia
  GI50: 2.31 µM
  TGI: 28.6 µM
NCI-H226 lung
  GI50: 4.04 µM
  TGI: 31.7 µM
NCI-H23 lung
  GI50: 2.69 µM
  TGI: 15.6 µM
NCI-H522 lung
  GI50: 1.67 µM
  TGI: 4.45 µM
NCI/ADR-RES ovarian
  GI50: 3.28 µM
  TGI: 30.9 µM
OVCAR-3 ovarian
  GI50: 3.77 µM
  TGI: 15.8 µM
OVCAR-4 ovarian
  GI50: 27.2 µM
  TGI: > 100 µM
OVCAR-5 ovarian
  GI50: 3.5 µM
  TGI: 15.4 µM
OVCAR-8 ovarian
  GI50: 2.45 µM
  TGI: 21 µM
PC-3 prostate
  GI50: 10.2 µM
  TGI: 38.4 µM
RPMI-8226 leukemia
  GI50: 4 µM
  TGI: 44.3 µM
RXF 393 renal
  GI50: 1.49 µM
  TGI: 3.17 µM
SF-268 CNS
  GI50: 2.21 µM
  TGI: 12.8 µM
SF-295 CNS
  GI50: 2.04 µM
  TGI: 5.75 µM
SF-539 CNS
  GI50: 2.02 µM
  TGI: 4.55 µM
SK-MEL-2 melanoma
  GI50: 2.03 µM
  TGI: 4.56 µM
SK-MEL-28 melanoma
  GI50: 2.17 µM
  TGI: 6.27 µM
SK-MEL-5 melanoma
  GI50: 1.17 µM
  TGI: 2.54 µM
SK-OV-3 ovarian
  GI50: 3.03 µM
  TGI: 9.66 µM
SN12C renal
  GI50: 2.96 µM
  TGI: > 100 µM
SNB-19 CNS
  GI50: 3.78 µM
  TGI: 45.9 µM
SNB-75 CNS
  GI50: 3.08 µM
  TGI: 53.9 µM
SR leukemia
  GI50: 2 µM
  TGI: 9.64 µM
SW-620 colon
  GI50: 3.17 µM
  TGI: > 100 µM
T-47D breast
  GI50: 41.3 µM
  TGI: > 100 µM
TK-10 renal
  GI50: 5.46 µM
  TGI: 31.5 µM
U251 CNS
  GI50: 3.56 µM
  TGI: 16.4 µM
UACC-257 melanoma
  GI50: 1.77 µM
  TGI: 3.88 µM
UACC-62 melanoma
  GI50: 1.45 µM
  TGI: 3.41 µM
UO-31 renal
  GI50: 1.99 µM
  TGI: 7.65 µM
